Results reported in article PMC4726324, “Rational steering of insulin binding specificity by intra-chain chemical crosslinking” (Scientific Reports, 2016).
Like-named read-outs stand apart in the source and are kept apart here.

Conditions: triazole bond
[1] = the molecule shown is the open-chain precursor, 17-membered ring, CuSO4/ascorbic acid, H2O/tBuOH 2:1, 0.08 mM, 25.0 °C

Row | Substance | ring closure, yield after HPLC [1] | other results
1 | cyclo[GB23-G-F-(NMe)A-Nva(δN3)-P-Prg-TB30] | – | ring closure, yield after HPLC (14-membered ring, Cu(I)/TBTA): 49%
2 | H-Gly-Phe-Phe-Prg-Thr-Pro-Nva(δN3)-Thr-OH? | 45% | –
3 | H-Gly-Phe-Phe-Tyr-Nva(δN3)-Pro-Prg-Thr-OH? | – | ring closure, yield after HPLC (the molecule shown is the open-chain precursor, 14-membered ring, CuSO4/ascorbic acid, H2O/tBuOH 2:1, 25.0 °C): 37%
4 | H-Gly-Gly-Phe-Tyr-Nva(δN3)-Pro-Prg-Thr-OH? | – | ring closure, yield after HPLC (the molecule shown is the open-chain precursor, 14-membered ring, CuSO4/ascorbic acid, H2O/tBuOH 2:1, 0.08 mM, 25.0 °C): 52%
5 | H-Gly-Gly-Phe-Nva(δN3)-Thr-Pro-Prg-Thr-OH? | 36% | –
6 | H-Gly-Phe-Phe-Nva(δN3)-Thr-Pro-Prg-Thr-OH | 40% | –
